Data from patent US4567143A, “Process for preparing 4'-deschlororebeccamycin” (Bristol-Myers Company, priority 1985, dated 1986).
In brackets after ≈: the same amount, converted by molar mass.

Tests used:
[1] = system: gram-positive and gram-negative organisms; assay: Antimicrobial activity (general statement); assay type: cell-based
Method: (§1) The antibacterial activity of 4'-deschlororebeccamycin was determined against a number of gram-positive and gram-negative organisms by the serial two-fold agar dilution method. The results are shown in Table 5 below in comparison with the activity of rebeccamycin.

Solubility = assay type: physicochemical
P-388 leukemia = assay: Effect on transplanted mouse leukemia P-388; assay type: in vivo, mouse (CDF1 F mice); settings: IP, single injection day 1; for MST % T/C: >125 considered significant tumor inhibition; for Average weight change, day 5: control 0.6; for MST (median survival time): control 11.0
Method: 4'-Deschlororebeccamycin was also tested against the transplanted mouse leukemia P-388 and the results are shown below in Table 6. The methodology used generally followed the protocols of the National Cancer Institute [Cancer Chemotherapy Rep. Part 3, 3, 1-103 (1972)]. The essential experimental details are given at the bottom of Table 6.
Tumor inoculum: 10^6 ascites cells, ip
Treatment: Single injection on day 1 given i.p.
Evaluation: MST = median survival time
Effect: % T/C = (MST treated/MST control) × 100
Criteria: % T/C >125 considered significant tumor inhibition
Control: Saline (0.5 ml) given once daily i.p. for 5 days

S. marcescens A20019 = assay: Antibacterial activity, serial two-fold agar dilution; assay type: cell-based; settings: Serratia marcescens, read-out: Minimum Inhibitory Concentration (MIC)
Method: as §1

S. coli A20341-1 = assay: as above; assay type: cell-based; settings: read-out: Minimum Inhibitory Concentration (MIC)
Method: as §1

M. luteus A9547 = assay: as above; assay type: cell-based; settings: Micrococcus luteus, read-out: Minimum Inhibitory Concentration (MIC)
Method: as §1

S. pyogenes A9604 = assay: as above; assay type: cell-based; settings: Streptococcus pyogenes, read-out: Minimum Inhibitory Concentration (MIC)
Method: as §1

M. morganii A15153 = assay: as above; assay type: cell-based; settings: Morganella morganii, read-out: Minimum Inhibitory Concentration (MIC)
Method: as §1

S. coli A15119 = assay: as above; assay type: cell-based; settings: read-out: Minimum Inhibitory Concentration (MIC)
Method: as §1

P. aeruginosa A21213 = assay: as above; assay type: cell-based; settings: Pseudomonas aeruginosa, read-out: Minimum Inhibitory Concentration (MIC)
Method: as §1

K. pneumoniae A9664 = assay: as above; assay type: cell-based; settings: Klebsiella pneumoniae, read-out: Minimum Inhibitory Concentration (MIC)
Method: as §1

E. cloacae A9656 = assay: as above; assay type: cell-based; settings: Enterobacter cloacae, read-out: Minimum Inhibitory Concentration (MIC)
Method: as §1

K. pneumoniae A20468 = assay: as above; assay type: cell-based; settings: Klebsiella pneumoniae, read-out: Minimum Inhibitory Concentration (MIC)
Method: as §1

S. aureus A9537 = assay: as above; assay type: cell-based; settings: Staphylococcus aureus, read-out: Minimum Inhibitory Concentration (MIC)
Method: as §1

P. mirabilis A9900 = assay: as above; assay type: cell-based; settings: Proteus mirabilis, read-out: Minimum Inhibitory Concentration (MIC)
Method: as §1

E. cloacae A9659 = assay: as above; assay type: cell-based; settings: Enterobacter cloacae, read-out: Minimum Inhibitory Concentration (MIC)
Method: as §1

S. faecalis A20688 = assay: as above; assay type: cell-based; settings: Enterococcus faecalis, read-out: Minimum Inhibitory Concentration (MIC)
Method: as §1

P. rettgeri A22424 = assay: as above; assay type: cell-based; settings: Providencia rettgeri, read-out: Minimum Inhibitory Concentration (MIC)
Method: as §1

P. vulgaris A21559 = assay: as above; assay type: cell-based; settings: Proteus vulgaris, read-out: Minimum Inhibitory Concentration (MIC)
Method: as §1

[2] = system: List. monocytogenes A15121; assay: as above; assay type: cell-based; settings: Listeria monocytogenes, read-out: Minimum Inhibitory Concentration (MIC)
Method: as §1

[3] = system: S. aureus (Pen-Res) A9606; assay: as above; assay type: cell-based; settings: Staphylococcus aureus, read-out: Minimum Inhibitory Concentration (MIC)
Method: as §1

S. pneumoniae A9585 = assay: as above; assay type: cell-based; settings: Streptococcus pneumoniae, read-out: Minimum Inhibitory Concentration (MIC)
Method: as §1

P. aeruginosa A9843A = assay: as above; assay type: cell-based; settings: Pseudomonas aeruginosa, read-out: Minimum Inhibitory Concentration (MIC)
Method: as §1

[4] = system: List. monocytogenes A20025; assay: as above; assay type: cell-based; settings: Listeria monocytogenes, read-out: Minimum Inhibitory Concentration (MIC)
Method: as §1

SMILES: COC1C(CO)OC(n2c3c(Cl)cccc3c3c4c(c5c6ccccc6[nH]c5c32)C(=O)NC4=O)C(O)C1O (stereo not drawn) [4'-Deschlororebeccamycin]
- antimicrobial activity [1]: exhibits antimicrobial activity
- solubility in dimethylsulfoxide (Solubility; dimethylsulfoxide): soluble
- solubility in water (Solubility; water): insoluble
- MST % T/C (P-388 leukemia; 16 mg/kg/inj): 164%
- Average weight change, day 5 (P-388 leukemia; 16 mg/kg/inj): -0.9 gm
- MST (median survival time) (P-388 leukemia; 16 mg/kg/inj): 18.0 days
- MST % T/C (P-388 leukemia; 32 mg/kg/inj): 141%
- Average weight change, day 5 (P-388 leukemia; 32 mg/kg/inj): -0.8 gm
- MST (median survival time) (P-388 leukemia; 32 mg/kg/inj): 15.5 days
- MST % T/C (P-388 leukemia; 64 mg/kg/inj): 136%
- Average weight change, day 5 (P-388 leukemia; 64 mg/kg/inj): -0.8 gm
- MST (median survival time) (P-388 leukemia; 64 mg/kg/inj): 15.0 days
- MST % T/C (P-388 leukemia; 128 mg/kg/inj): 159%
- Average weight change, day 5 (P-388 leukemia; 128 mg/kg/inj): -0.6 gm
- MST (median survival time) (P-388 leukemia; 128 mg/kg/inj): 17.5 days
- MST % T/C (P-388 leukemia; 256 mg/kg/inj): 136%
- Average weight change, day 5 (P-388 leukemia; 256 mg/kg/inj): -1.5 gm
- MST (median survival time) (P-388 leukemia; 256 mg/kg/inj): 15.0 days
- MST % T/C (P-388 leukemia; 512 mg/kg/inj): 141%
- Average weight change, day 5 (P-388 leukemia; 512 mg/kg/inj): -1.0 gm
- MST (median survival time) (P-388 leukemia; 512 mg/kg/inj): 15.5 days
- MIC (S. marcescens A20019): > 250 µg/mL
- MIC (S. coli A20341-1): > 250 µg/mL
- MIC (M. luteus A9547): 1 µg/mL (≈ 1.87 µM)
- MIC (S. pyogenes A9604): 32 µg/mL (≈ 59.7 µM)
- MIC (M. morganii A15153): > 250 µg/mL
- MIC (S. coli A15119): > 250 µg/mL
- MIC (P. aeruginosa A21213): > 250 µg/mL
- MIC (K. pneumoniae A9664): > 250 µg/mL
- MIC (E. cloacae A9656): > 250 µg/mL
- MIC (K. pneumoniae A20468): > 250 µg/mL
- MIC (S. aureus A9537): 2 µg/mL (≈ 3.73 µM)
- MIC (P. mirabilis A9900): > 250 µg/mL
- MIC (E. cloacae A9659): > 250 µg/mL
- MIC (S. faecalis A20688): 16 µg/mL (≈ 29.9 µM)
- MIC (P. rettgeri A22424): > 250 µg/mL
- MIC (P. vulgaris A21559): > 250 µg/mL
- MIC [2]: 32 µg/mL (≈ 59.7 µM)
- MIC [3]: > 250 µg/mL
- MIC (S. pneumoniae A9585): 32 µg/mL (≈ 59.7 µM)
- MIC (P. aeruginosa A9843A): > 250 µg/mL
- MIC [4]: 63 µg/mL (≈ 118 µM)

SMILES: CO[C@H]1[C@H](O)[C@@H](O)[C@H](n2c3c(Cl)cccc3c3c4c(c5c6cccc(Cl)c6[nH]c5c32)C(=O)NC4=O)O[C@@H]1CO [Rebeccamycin]
- MST % T/C (P-388 leukemia; 16 mg/kg/inj): 136%
- Average weight change, day 5 (P-388 leukemia; 16 mg/kg/inj): -0.8 gm
- MST (median survival time) (P-388 leukemia; 16 mg/kg/inj): 15.0 days
- MST % T/C (P-388 leukemia; 32 mg/kg/inj): 118%
- Average weight change, day 5 (P-388 leukemia; 32 mg/kg/inj): -0.6 gm
- MST (median survival time) (P-388 leukemia; 32 mg/kg/inj): 13.0 days
- MST % T/C (P-388 leukemia; 64 mg/kg/inj): 136%
- Average weight change, day 5 (P-388 leukemia; 64 mg/kg/inj): 0.3 gm
- MST (median survival time) (P-388 leukemia; 64 mg/kg/inj): 15.0 days
- MST % T/C (P-388 leukemia; 128 mg/kg/inj): 132%
- Average weight change, day 5 (P-388 leukemia; 128 mg/kg/inj): 0.2 gm
- MST (median survival time) (P-388 leukemia; 128 mg/kg/inj): 14.5 days
- MST % T/C (P-388 leukemia; 256 mg/kg/inj): 136%
- Average weight change, day 5 (P-388 leukemia; 256 mg/kg/inj): -0.3 gm
- MST (median survival time) (P-388 leukemia; 256 mg/kg/inj): 15.0 days
- MST % T/C (P-388 leukemia; 512 mg/kg/inj): 155%
- Average weight change, day 5 (P-388 leukemia; 512 mg/kg/inj): -1.4 gm
- MST (median survival time) (P-388 leukemia; 512 mg/kg/inj): 17.0 days
- MIC (S. marcescens A20019): > 250 µg/mL
- MIC (S. coli A20341-1): > 250 µg/mL
- MIC (M. luteus A9547): 0.5 µg/mL (≈ 0.877 µM)
- MIC (S. pyogenes A9604): > 125 µg/mL
- MIC (M. morganii A15153): > 250 µg/mL
- MIC (S. coli A15119): > 250 µg/mL
- MIC (P. aeruginosa A21213): > 250 µg/mL
- MIC (K. pneumoniae A9664): > 250 µg/mL
- MIC (E. cloacae A9656): > 250 µg/mL
- MIC (K. pneumoniae A20468): > 250 µg/mL
- MIC (S. aureus A9537): 0.5 µg/mL (≈ 0.877 µM)
- MIC (P. mirabilis A9900): > 250 µg/mL
- MIC (E. cloacae A9659): > 250 µg/mL
- MIC (S. faecalis A20688): 8 µg/mL (≈ 14 µM)
- MIC (P. rettgeri A22424): > 250 µg/mL
- MIC (P. vulgaris A21559): > 250 µg/mL
- MIC [2]: 32 µg/mL (≈ 56.1 µM)
- MIC [3]: > 250 µg/mL
- MIC (S. pneumoniae A9585): > 125 µg/mL
- MIC (P. aeruginosa A9843A): > 250 µg/mL
- MIC [4]: 32 µg/mL (≈ 56.1 µM)
